Row | Compound | melting point [°C]
1 | CS(=O)c1ccc(Oc2ccc(Cl)c(Cl)c2)nc1C(N)=O (stereo unspecified) | 185 to 187
2 | S=C(SCc1ccccc1)N1CC2CCC(CC2)C1 | 98 to 99
3 | Cc1cc(CC(O)CO)c(OCc2ccccc2)c2c1CCC2 (stereo unspecified) | 77 to 80
4 | CC(C)(C)OC(=O)NC1CCN(CC23CC(c4ccccc42)c2ccccc23)CC1 | 155 to 160
5 | CC1S/C(=N/N=C\c2ccc(-c3ncn(-c4ccc(OC(F)(F)F)cc4)n3)cc2)N(c2ccccc2C2CC2)C1=O (stereo unspecified) | 112 to 115
6 | CCOC(=O)C=C(C)C=CC=C(C)C=Cc1c(C)cc(OC)c(OC)c1C | 203 to 204
7 | CC(C)(C)OC(=O)N[C@H](CC(=O)OCc1ccccc1)C(=O)N[C@H](COC(=O)OCc1ccccc1)c1ccccc1 | 105 to 106
8 | CN1CCN(c2ccc(Nc3ncc4ccc(-c5ccc(S(C)(=O)=O)cc5)n4n3)cc2)CC1 | 234 to 238
9 | CC(=O)NCc1nnc(S)s1 | 200 to 203
10 | COC(=O)c1ccc2c(c1)S(=O)(=O)N=CN2C1CC1 | 192 to 195
11 | O=[N+]([O-])c1cccnc1Nc1ccc(O)cc1 | 143 to 144
12 | CS(=O)(=O)c1ccc(-c2cnn(-c3ccc(F)cc3F)c(=O)c2-c2ccc(F)cc2)cc1 | 245 to 247
13 | Nc1c(Cl)ncnc1Nn1ccc2ccccc21 | 175 to 176
14 | O=C(NCCO)c1ccc(CCCc2ccccc2CCc2ccccc2)cc1 | 104 to 106
15 | CCCCCCOC(=O)C(CSC(=O)C(C)c1ccc(CC(C)C)cc1)NC(C)=O (stereo unspecified) | 40 to 45
16 | CCOC1=C(C)C(=O)C(C)(C)CC1 | 104 to 106
17 | C#Cc1cc(Cl)cc(Cl)c1 | 80 to 81.5
18 | CC1(C)CC=C(S(=O)(=O)c2ccccc2)CC1 | 51 to 53
19 | NC(c1ncn(N)n1)C1CCN(CC2COc3ccccc3O2)CC1 (stereo unspecified) | 157 to 158
20 | N=C(N)NCCCCCC(=O)Oc1ccc2cc(C(=N)N)ccc2c1 | 136
21 | CCCCCCCCCCCCn1nnc(CCC(=O)OC)n1 | 39 to 42
22 | Cc1cc(-n2ccnc2)c2cccc(OCc3c(Cl)ccc(S(=O)(=O)N4CCC[C@H]4C(=O)N(C)CCCN(C)CCCO)c3Cl)c2n1 | 92
23 | CCSc1ccc(Cl)c(OS(C)(=O)=O)n1 | 40 to 41

Row | Compound | melting point [°C]
24 | COC(=O)C1(C(N)=O)CC1 | 157
25 | c1ccc(C2CNc3ccccc3C2)cc1 (stereo unspecified) | 84 to 86
26 | CN(C1CCCCC1)S(=O)(=O)c1ccc(CCSn2cnc3ccccc32)cc1 | 60 to 63
27 | O=C1c2ccccc2C(OCC2CO2)N1c1cccc(Cl)c1 (stereo unspecified) | 170
28 | CC(O)(c1ccncc1)c1cnc(-c2ccc(F)cc2)s1 (stereo unspecified) | 229 to 232
29 | C(=C1CSCC2=C1N=C1SCCN1C2c1ccccc1)c1ccccc1 (stereo unspecified) | 195 to 196
30 | CCCCN(C(=O)c1cc(C(C)(C)C)c(O)c(C(C)(C)C)c1)C1CC(C)(C)N(OC(C)=O)C(C)(C)C1 | 161 to 164
31 | CC(C)C(=O)Nc1nc(Cl)c([N+](=O)[O-])c(Cl)n1 | 166 to 169
32 | COc1cc(CCC2=NNC(=O)CC2)cc(OC)c1OC | 116 to 117
33 | Cc1ccn(C)c(=S)n1 | 138 to 140
34 | CS(=O)(=O)c1ccc(-c2nn3c(-c4ccccc4)c(-c4ccccc4)oc3c2-c2ccc(F)cc2)cc1 | 228 to 229
35 | COc1ccc(-c2c(Cl)c(CN3C(=O)CCC3=O)nc3sc4c(c23)CCC(C(=O)N2CCOCC2)C4)cc1 (stereo unspecified) | 170 to 171
36 | CN1CCN(C(=O)OC2C3=C(SCCS3)C(=O)N2c2ccccn2)CC1 (stereo unspecified) | 145
37 | NC(=O)c1cc(OCCNCC(O)COc2ccc(CCOCC3CC3)cc2)ccc1O (stereo unspecified) | 149 to 150
38 | CSC1=Nc2ccccc2Sc2nccn21 | 116 to 118
39 | Cc1nc(C(=O)NC23CC4CC(CC(C4)C2)C3)cn1-c1ccccc1 | 207 to 210
40 | CC1(C)CC1C(=O)NC(=CCCC(=O)O)C(=O)O (stereo unspecified) | 163 to 165
41 | N#CCC(=O)c1cccn1Cc1ccccc1 | 119 to 120
42 | O=C1Nc2ccc(C3CC4CCC3C4)cc2C12OCCO2 (stereo unspecified) | 159 to 161
43 | CC(=NC(C#N)=C(N)C#N)c1ccccc1O | 181 to 183
44 | COc1ccc(C(=O)C2=C(c3ccc(OC)cc3)CCc3cc(OC)ccc32)cc1 | 172 to 173
45 | N#Cc1c(Cl)cc(Cl)cc1[N+](=O)[O-] | 102 to 103
46 | O=C(CC(F)=C(F)F)NNC(=O)CC(F)=C(F)F | 191 to 193

Row | Compound | melting point [°C]
47 | CSCCC(=N)NS(N)(=O)=O | 88 to 91
48 | COc1ccc(-c2nccc(N3CCN(c4c(C)c(C)c5c(c4C)CC(C)(C)O5)CC3)n2)cc1 | 240 to 242
49 | CC1(C)SCN(CCCCN2CCN(c3n[nH]c4cc(F)ccc34)CC2)C1=O | 123 to 125
50 | COC(=O)[C@H](CC(C)C)NC(=O)c1ccco1 | 88 to 90
51 | CCOC(=O)CCCN(C(=O)CC)C(c1ccccc1)c1ccccc1 | 83 to 85
52 | CC(C)(C)OC(=O)[C@H]1C[C@@H](C(=O)OCc2ccccc2)[C@@H](c2ccccc2)N1C(=O)CNC(=O)Nc1cccc(C(=O)OCc2ccccc2)c1 (racemic) | 110
53 | COC(=O)c1cc([N+](=O)[O-])c(F)cc1F | 78 to 80
54 | CCC1(C)CCCNC1=O (stereo unspecified) | 67 to 69
55 | CC(C(=O)O)c1ccc2c(c1)CC(C)(C)C2 (stereo unspecified) | 180 to 183
56 | O=C(Nc1ccc(F)c(NC(=S)Nc2cccc(C(F)(F)F)c2)c1)c1ccc(Cl)c(Cl)c1 | 172 to 174
57 | COc1ccc(C=O)c(OC)c1Cl | 107 to 108
58 | O=c1[nH]c2ccc(F)cc2c(=O)n1-c1ccc(Cl)cc1Cl | 313 to 314
59 | Cn1cnc2nc(-c3ccc(F)cc3)nn2c1=S | > 300
60 | Cc1c(SCCCSCCc2ccccc2)ccnc1CSc1ccncc1 | 48 to 50
61 | COc1cc(/C=C/C(=O)/C=C/c2cc(OC)c(OCCN=[N+]=[N-])c(OC)c2)cc(OC)c1OCCN=[N+]=[N-] | 107 to 109
62 | CCc1cc(OCc2ccc(-c3ccccc3-c3nnn(C(c4ccccc4)(c4ccccc4)c4ccccc4)n3)cc2)c2c(n1)CCCN2C(=O)C(F)(F)F | 93 to 95
63 | Cc1cccc(OC(=O)C(=O)Oc2cccc(C)c2)c1 | 101 to 103
64 | Cc1cc(O)c2c(c1)C(C)(C)CC2(C)C | 66
65 | O=C(O)Cn1c(=O)n(S(=O)(=O)c2ccc(Cl)cc2)c(=O)c2ccc(Cl)cc21 | 194 to 195
66 | CC(=O)Oc1ccccc1-c1ccc(Cl)nn1 | 131 to 134
67 | CC1(C)C=C(c2ccccc2)c2ccccc2N1 | 79.5 to 81
68 | CCCCCCCCCCCCCCCCCCN1C(=O)C2(CCCCC2)NC2(CCCCC2)C1=O | 39 to 40
69 | COc1ccc(C2(c3ccc(O)c(C)c3)c3ccccc3-c3ccccc32)cc1 | 186 to 188

Now from value to compound:

Row | melting point [°C] | Compound
70 | 75 to 80 | CC(C)C(=O)NC[C@H]1CN(c2ccc3c(c2)CCCc2cnn(C(=O)C(C)C)c2-3)C(=O)O1
71 | 92 to 94 | COCCOC(=O)c1cc(-n2c(OC)nc(C(F)(F)C(F)(F)F)cc2=O)c(F)cc1Cl
72 | 171 to 173 | CCC(C)(C)Nc1c(NCc2cc3cc(C#N)ccc3o2)c(=O)c1=O
73 | 124 to 125 | Cc1oc(-c2ccccc2)nc1CCC(=O)O
74 | > 80 | Cc1c2n3ccc4c3c(c3cnccn3c-2cc(=O)c1=O)CCC4
75 | 128 to 132 | COCCc1sc2ncnc(N)c2c1-c1ccc(NC(=O)Nc2ccc(C)cc2)cc1
76 | 145 to 146 | Cc1cc(Br)cnc1CCCCNc1ncc(Cc2ccc3c(c2)OCO3)c(=O)[nH]1
77 | 180 to 185 | O=C1CN(C(=O)OCC2c3ccccc3-c3ccccc32)CC(=O)O1
78 | > 300 | O=C1NC(=S)SC1=Cc1ccc2c(c1)N(OCc1ccc(C(F)(F)F)cc1)C(=O)CO2
79 | 174 to 176 | CCCn1cc(C(=O)NCc2ccc(Cl)cc2)c(=O)c2cc(CN3CCOCC3)sc21
80 | 168 to 169 | COc1cccc(CNC(=O)c2nc3ccc(OCC(=O)c4ccccc4)cc3c(=O)[nH]2)c1
81 | 151 to 153 | O=C1N(Cc2nnc(-c3ccccc3)o2)c2ccccc2C12COc1cc3c(cc12)OCO3 (stereo unspecified)
82 | 121 to 123 | CCCOc1c(OC)cc(C(=O)O)cc1[N+](=O)[O-]
83 | 147 to 148 | COC(=O)c1cc(NC(C)=O)ccc1O
84 | 188 to 190 | CS(=O)(=O)c1cc(Br)ccc1CN1C(=O)c2ccccc2C1=O
85 | 209 to 212 | CCOC(=O)c1cc2c(C=O)cc3c4ccccc4ccc3c2o1

Row | melting point [°C] | Compound
86 | 232 to 233 | CC(=O)Nc1c(C#N)ccc(C#N)c1[N+](=O)[O-]
87 | 273 to 275 | CCOC(=O)c1cc2c(cn1)[nH]c1cccc(Oc3ncccn3)c12
88 | 250 to 252 | Cc1ccc2[nH]c3c(cc(-c4cccc(Nc5ccccn5)c4)c(=O)n3C)c2c1
89 | 137 to 140 | Cc1ccc(Cc2cnc(NCCCN(C)c3ncc(Br)cn3)[nH]c2=O)cn1
90 | 258 to 260 | COc1ccc(-c2cc(OCC(=O)O)nc(Nc3ccc(OC)c(Cl)c3)n2)cc1
91 | 68 to 69 | CCOC(=O)c1c(C)cc2cnc(-c3ccccc3C(F)(F)F)nc2c1C
92 | 191 to 198 | CN1CCC(CCCOc2cc3ncnc(Nc4cccc(Br)c4)c3cc2N)CC1
93 | 260 to 262 | N#CCOC(=O)c1ccc2nc3ccc(O)cc3c(=O)n2c1
94 | 232 to 233 | Cc1ccc(Oc2ccc3c4c(cccc24)C2=NC(=O)C(C#N)=C23)cc1
95 | 104 | COc1cccc(-c2ccc3ccc(NC(=O)c4cccc(Br)c4)nc3n2)c1
96 | 196 to 201 | CCCCOCCOc1ccc(-c2ccc3c(c2)C=C(C(=O)O)CCN3C(=O)CNC(C)=O)cc1
97 | 199 to 201 | COc1cc(Nc2nc3cccc(-c4cccc(Cl)c4)c3o2)cc(OC)c1OC
98 | 220 to 221 | CC(C)(C)c1cc(CCc2nnc(N)o2)cc(C(C)(C)C)c1O
99 | 134 to 136 | Cc1cc(=O)n(-c2cc(C(=O)OC(C)C)c(Cl)cc2F)c(=O)[nH]1
100 | 47 to 49 | Cc1ccc(I)c(CC(=O)N(C)C)c1
101 | 253 to 254 | Cc1oc2c(C)c(C)c(NC(=O)CC(C)(C)C)c(C)c2c1-c1ccc(C(C)C)cc1

Reference: a melting point compilation (Tetko et al.; mined from patent text by program, amines drawn as free bases though some values may be those of a salt)
